Measurements published in patent US20050038058A1, “Novel compounds and methods for therapy” (Institute of Organic Chemistry and Biochemistry, priority 2001, published 2005).
≈ marks a conversion by molar mass, not a printed value. Read-outs that look alike come from different tables or passages of the source. Marks after values point to notes of the source that are not given here.

Legend:
MSV [1] = assay: MSV-induced transformation of murine embryo fibroblast C3H/3T3 cell cultures; assay type: cell-based; conditions: MSV-induced C3H cell transformation, Table 2
Experimental: The inhibitory effect of the test compounds on MSV-induced transformation of murine embryo fibroblast C3H/3T3 cell cultures was examined microscopically at day 6 post infection. MSV was added at 75 focus-forming units to the cell cultures. The detailed procedures for the antiretroviral evaluations has been described in detail before (Balzarini et al., AIDS 5:21-28, 1991; Balzarini et al., Antimicrob. Agents Chemother. 37:332-338, 1993; De Clercq et al., Proc. Soc. Exp. Biol. Med. 137:590-594, 1971).

HIV-2(ROD) = assay: HIV-2(ROD)-induced cytopathicity in MT-4 cell cultures; assay type: cell-based; conditions: Table 2
Source text: (§1) Viruses. The origins of MSV, HIV type 1 (HIV-1) (strain IIIB and Ba-L), HIV-2 (strain ROD) and FIV (strain Petaluma) have been described previously (Balzarini et al., AIDS 5: 21-28, 1991; De Clercq et al., Proc. Soc. Exp. Biol. Med. 137:590-594, 1971; Egberink et al., Proc. Natl. Acad. Sci. 87:3087-3091, 1990; Hartmann et al., Antiviral Chem. Chemother. 5:13-19, 1994; Popovic et al., Science 224:497-500, 1984). HIV-1(IIIB) and HIV-2(ROD) stocks were obtained from supernatants of virus-infected MT-4 cell cultures. HIV-1BaL was expanded in human primary M/M, whose supernatants were collected, filtered and stored at −80° C. before use. Characteristics of viral stocks used for this study were 2.1×10^8 HIV-RNA genomes/ml (corresponding to 35 ng of p24 antigen) and 5,000 tissue culture infectious doses 50% per ml (TCID50/ml) as assessed by virus titration in other primary M/M cultures. The isolation and characterization of the clinical HIV-1 isolates L1S, L6S and L6S/PMEA has been reported (Thormar et al., Proc. Natl. Acad. Sci. USA 93:3283-3287, 1995; Van Laethem et al., AIDS 15:553-561, 2001). […] HIV-1/L6S/PMEA is the clinical isolate HIV-1/L6S that has been isolated after culturing the virus for 11 passages in the presence of increasing concentrations of PMEA (adefovir).
(§2) In vitro antiviral assays. The activity against HIV-1- and HIV-2-induced cytopathicity was examined in MT-4 cell cultures at day 5 post infection and based on the determination of cell viability by trypan blue dye staining or in CEM cell cultures at day 4 to 5 post infection and based on the microscopical examination of virus-induced giant cell formation. HIV-1 and HIV-2 were added at 100 CCID50 to the cell cultures.

C3H cells = assay: Alteration of C3H cell morphology (minimal inhibitory concentration); assay type: cell-based, murine; conditions: for CC50 C3H (minimal inhibitory concentration): microscopically visible alteration of cell morphology, > means no visible toxicity at the indicated concentration; for Compound concentration at which morphological toxicity was observed, C3H (value between parentheses): Table 2, footnote c
CEM cells = assay: Incorporation of [3H]thymidine, [3H]uridine and [3H]leucine into CEM cell material; assay type: cell-based; conditions: 200 μg/mL; 12 hour incubation period
Experimental: The incorporation of [methyl-^3H]thymidine, [^3H]uridine and [^3H]leucine into the methanol-insoluble CEM cell fraction was also measured in microplates. To each well were added 10^5 CEM cells, 5.9 pmol (0.25 μCi) of [methyl-^3H]thymidine, 38 pmol (1.0 μCi) of [^3H]uridine and 19 pmol (1.0 μCi) [4,5-^3H]leucine, and a given amount of the test compound. […] At the end of this incubation period, the contents of the wells (200 μl) were brought onto 25-mm glass fiber filters (type A/G; Gelman Instrument Co., Ann Arbor, Mich.) mounted on a Millipore 3025 sampling manifold apparatus. The filters were washed twice with cold PBS (phosphate-buffered saline), twice with cold 10% trichloroacetic acid, twice with cold 5% trichloroacetic acid, once with cold ethanol, and once with cold ether. The filters were then allowed to dry for 10 min at 60° C. and assayed for radioactivity in a toluene-based scintillant.

MSV [2] = assay type: in vivo; conditions: for Number of Mice not Developing a Tumor (percent): intraperitoneal, 5 daily doses, newborn NMRI mice
HIV-1(IIIB) = assay: HIV-1(IIIB)-induced cytopathicity in CEM cell cultures; assay type: cell-based
Source text: as §1, §2

FIV (strain Petaluma) = assay: Anti-FIV assay, p24 antigen in CrFK cells; assay type: cell-based; conditions: Table 2
Experimental: For the anti-FIV assays, 10^5 CrFK cells were seeded onto 24-well tissue culture plates. Cells were cultured with 2 ml of culture medium/well containing 2.5% of fetal calf serum in the presence of various drug concentrations. The assays were carried out in triplicate. After a 1-hr incubation period at 37° C., cells were infected with FIV. Virus was left in contact with the cultures for 1 day, after which the medium was removed and new medium containing the appropriate drug concentrations was added. After 6 days, the presence of FIV p24 antigen was examined by an antigen capture assay.

HIV = assay: Anti-HIV activity across HIV-1 and HIV-2 in CEM and MT-4 cell cultures; assay type: cell-based; conditions: HIV-1 and HIV-2 in CEM and MT-4 cells
Experimental: as §2

[3] = Alteration of C3H cell morphology (minimal inhibitory concentration); assay type: cell-based, murine; conditions: mouse; microscopically visible alteration of cell morphology; > means no visible toxicity at the indicated concentration; read-out: CC50 C3H (minimal inhibitory concentration)
[4] = Inhibition of CEM cell growth (cytostatic activity); assay type: cell-based; conditions: human; 50% cytostatic concentration, CEM cell proliferation; Table 1; read-out: CC50 (CEM)
Experimental: Cytostatic and antimetabolic effect of acyclic nucleoside phosphonates in vitro. The assays to examine the inhibition of CEM cell growth by the test compounds have been described previously (Balzarini et al., AIDS 5:21-28, 1991). The 50% cytostatic concentration (CC50) was defined as the concentration of compound that reduced the number of living cells by 50% . To measure MT-4 cell toxicity of the test compounds, 5×10^4 MT-4 cells were incubated in the wells of 96-well microplates in the presence or absence of different concentrations of the test compounds for 5 days at 37° C. The CC50 was then calculated from the number of living cells counted under a microscope by the trypan blue exclusion method.

[5] = test system: HIV-1(IIIB) strains containing L100I, K103N, Y181C and Y188H mutations in the RT; assay: HIV-1(IIIB) strains with NNRTI-specific RT mutations in CEM cell cultures; assay type: cell-based; conditions: data not shown
Experimental: as §2

[6] = 20 mg/kg, premature death not taken into account
[7] = HIV-1 (IIIB) in CEM, no addition, Table 3
[8] = HIV-1 (IIIB) in CEM, Ade 100 μM
[9] = HIV-1 (IIIB) in CEM, Ado 400 μM
[10] = HIV-1 (IIIB) in CEM, dThd 10 μM
[11] = HIV-1(IIIB)-induced cytopathicity in CEM cell cultures, Table 1
[12] = giant cell formation, mean ±SD of 2 to 4 experiments, Table 2

Row | Structure (SMILES) | EC50 MSV (C3H) (MSV [1]) [µg/mL] | EC50 HIV-2 (ROD) (MT-4) (HIV-2(ROD)) [µg/mL] | CC50 C3H (minimal inhibitory concentration) (C3H cells) [µg/mL] | Inhibition of [3H]dThd, [3H]Urd and [3H]leu incorporation into TCA-insoluble CEM cell material (macromolecular synthesis) (CEM cells) | Number of Long-Term Survivors (%) (>30 days) (MSV [2]; 2 mg/kg) | Number of Mice not Developing a Tumor (percent) (MSV [2]; 2 mg/kg) [%] | Number of Long-Term Survivors (%) (>30 days) (MSV [2]; 8 mg/kg) | Number of Mice not Developing a Tumor (percent) (MSV [2]; 8 mg/kg) [%] | Number of Mice not Developing a Tumor (percent) (MSV [2]; 20 mg/kg) [%] | Number of Long-Term Survivors (%) (>30 days) (MSV [2]; [6]) | EC50 as such (HIV-1(IIIB); [7]) [µg/mL] | EC50 upon addition of Ade (100 μM) (HIV-1(IIIB); [8]) [µg/mL] | EC50 upon addition of Ado (400 μM) (HIV-1(IIIB); [9]) [µg/mL] | EC50 upon addition of Guo (10 μM) (HIV-1(IIIB); HIV-1 (IIIB) in CEM, Guo 10 μM) [µg/mL] | EC50 upon addition of dCyd (1 mM) (HIV-1(IIIB); HIV-1 (IIIB) in CEM, dCyd 1 mM) [µg/mL] | EC50 upon addition of dThd (10 μM) (HIV-1(IIIB); [10]) [µg/mL] | EC50 HIV-1 (CEM) (HIV-1(IIIB); [11]) [µg/mL] | EC50 HIV-1 (IIIB) (CEM) (HIV-1(IIIB); [12]) [µg/mL] | EC50 FIV (CrFK) (FIV (strain Petaluma)) [µg/mL] | Compound concentration at which morphological toxicity was observed, C3H (value between parentheses) (C3H cells) [μg/ml] | also measured
1 | C[C@H](Cn1cnc2c(N)ncnc21)OCP(=O)(O)O [(R)-PMPA, (R)-9-[(2-phosphonomethoxy)-propyl]adenine, reference compound] | 1.4 ± 0.9 (≈ 4.87 µM) | 0.52 (≈ 1.81 µM) | >200 | not inhibitory | 31 | 0 | 83 | 65 | 92 | 100% | 0.57 ± 0.26 (≈ 1.98 µM) | 1.6 ± 1.6 | 0.46 ± 0.23 | 0.43 ± 0.0 | 0.53 ± 0.26 | 0.43 ± 0.0 | 0.36 (≈ 1.25 µM) | 0.36 ± 0.24 (≈ 1.25 µM) | 0.13 (≈ 0.453 µM) | – | Number of Mice not Developing a Tumor (percent) (MSV [2]; 50 mg/kg): 100%; Number of Long-Term Survivors (%) (>30 days) (MSV [2]; 50 mg/kg, premature death not taken into account): 100%; EC50 values for HIV (range over virus/cell systems) (HIV): 0.36 to 0.52 µg/mL
2 | Nc1ncnc2c1ncn2CCOCP(=O)(O)O [PMEA, 9-[(2-phosphono-methoxy)ethyl]adenine, reference compound] | – | – | – | not inhibitory | – | – | 77 | 44 | 89 | 94% | – | – | – | – | – | – | – | – | – | 200 | EC50 (MSV [1]; Mus musculus, read-out: EC50 MSV (C3H)): 0.62 ± 0.27 µg/mL (≈ 2.27 µM); EC50 (HIV-2(ROD); Human immunodeficiency virus 2, MT4, read-out: EC50 HIV-2 (ROD) (MT-4)): 1.9 µg/mL (≈ 6.95 µM); Minimal concentration causing visible cell morphology alteration [3]: > 40 µg/mL; Number of Long-Term Survivors (%) (>30 days) (MSV [2]; 4 mg/kg): 35%; Number of Mice not Developing a Tumor (percent) (MSV [2]; 4 mg/kg): 5%; Number of Mice not Developing a Tumor (percent) (MSV [2]; 100 mg/kg): 100^d percent; CC50 [4]: 16 µg/mL (≈ 58.6 µM); EC50 (HIV-1(IIIB); Human immunodeficiency virus 1, CCRF-CEM, HIV-1 (IIIB) in CEM, no addition, Table 3, read-out: EC50 as such): 0.94 ± 0.24 µg/mL (≈ 3.44 µM); EC50 (HIV-1(IIIB); Human immunodeficiency virus 1, CCRF-CEM, HIV-1 (IIIB) in CEM, Ade 100 μM, read-out: EC50 upon addition of Ade (100 μM)): 1.9 ± 1.3 µg/mL (≈ 6.95 µM); EC50 (HIV-1(IIIB); Human immunodeficiency virus 1, CCRF-CEM, HIV-1 (IIIB) in CEM, Ado 400 μM, read-out: EC50 upon addition of Ado (400 μM)): 1.6 ± 0.4 µg/mL (≈ 5.86 µM); EC50 (HIV-1(IIIB); Human immunodeficiency virus 1, CCRF-CEM, HIV-1 (IIIB) in CEM, Guo 10 μM, read-out: EC50 upon addition of Guo (10 μM)): 1 ± 0.8 µg/mL (≈ 3.66 µM); EC50 (HIV-1(IIIB); Human immunodeficiency virus 1, CCRF-CEM, HIV-1 (IIIB) in CEM, dCyd 1 mM, read-out: EC50 upon addition of dCyd (1 mM)): 2.1 ± 0.19 µg/mL (≈ 7.69 µM); EC50 (HIV-1(IIIB); Human immunodeficiency virus 1, CCRF-CEM, HIV-1 (IIIB) in CEM, dThd 10 μM, read-out: EC50 upon addition of dThd (10 μM)): 1.4 ± 0.4 µg/mL (≈ 5.12 µM); EC50 (HIV-1(IIIB); Human immunodeficiency virus 1, CCRF-CEM, HIV-1(IIIB)-induced cytopathicity in CEM cell cultures, Table 1, read-out: EC50 HIV-1 (CEM)): 0.96 µg/mL (≈ 3.51 µM); EC50 (HIV-1(IIIB); Human immunodeficiency virus 1, IIIB, CCRF-CEM, giant cell formation, mean ±SD of 2 to 4 experiments, Table 2, read-out: EC50 HIV-1 (IIIB) (CEM)): 0.96 ± 0.24 µg/mL (≈ 3.51 µM); EC50 (FIV (strain Petaluma); Feline immunodeficiency virus, CRFK): 0.46 ± 0.19 µg/mL (≈ 1.68 µM); EC50 (HIV; Human immunodeficiency virus 1, MT4, read-out: EC50 values for HIV (range over virus/cell systems)): 0.96 to 2 µg/mL (≈ 3.51 to 7.32 µM)
3 | C[C@H](COc1cc(N)nc(N)n1)OCP(=O)(O)O [Compound 11, 2,4-diamino-6-(R)-[2-(phosphonomethoxy)propoxy]pyrimidine] | 0.05 ± 0.01 (≈ 0.18 µM) | 1.6 ± 0.6 (≈ 5.75 µM) | > 40 | Neither compounds 1 nor 2, nor compound 11 were inhibitory | 5 | 0 | 40 | 15 | 20 | 40^c % | 1.2 ± 0.25 (≈ 4.31 µM) | 0.35 ± 0.17 | 1.5 ± 0.70 | 0.77 ± 0.38 | 1.1 ± 0.51 | 0.83 ± 0.35 | 1.8 (≈ 6.47 µM) | 1.9 ± 0.5 (≈ 6.83 µM) | 0.66 ± 0.14 (≈ 2.37 µM) | 200 | Activity against NNRTI-specific mutant virus strains, in words [5]: retained full activity; Antiretroviral (anti-HIV-1) activity in CEM cell cultures, in words (HIV-1(IIIB)): markedly more inhibitory
